Experimental data reported in US20220153739A1, “OPIOID RECEPTOR MODULATOR AND USE THEREOF” (Arriba BioPharma, Inc., priority 2020, published 2022).

Key:
Caco-2 cells = experiment: Bidirectional permeability in Caco-2 cells; type: in vitro ADME
Protocol: (§1) The objective of this study was to determine the bidirectional permeability and efflux ratio of compound D in the Caco-2 cells. Caco-2 cells (purchased from ATCC) at passage number 49 were seeded on 96-well transport inserts and cultured for 22 days before being used for the transport experiment. Compound D was dosed bi-directionally at 2 μM. Samples were taken at 0 and 120 minutes after incubation and analyzed by LC-MS/MS. […] Therefore, both the efflux ratios could not be calculated.

[1] = Bidirectional permeability in Caco-2 cells; type: in vitro ADME; settings: human, 120 minutes; for Papp B→A at 120 min, 2 μM: Caco-2, Caco-2, B to A direction, read-out: mean apparent permeability coefficient (Papp), B to A
Protocol: as §1

male CD-1 mice [2] = experiment: Stress induced fecal output; type: in vivo; settings: for 0 h (Stools), mean / 0-1 h (Stools), mean / 1-2 h (Stools), mean / 2-4 h (Stools), mean: 50 mg/kg PO, stress induced
From the text: The animals used in the studies are male CD-1 mice, average weight about 25 to 35 g, with an average of 5 mice per dose group. The mice were generally housed in colony housing where they are housed 4 per cage in polycarbonate 20 cages with access to food and water ad lib. On the day of the experiment they are transported to the procedure room where they were individually housed in metabolism cage (CAT003) after intragastric administration of Compound D at 50mpk, a reference compound of Formula II (“ORP-101”), and the vehicle alone. Compound D (“ALB-215896”) and the reference compound were each weighed and dissolved in 2.58 ml of de-ion water, mixed by vortex, to prepare the compound D and reference compound solutions at 5 mg/mL.
During the test, the animals were fasted with free access to water. The wire mesh bottomed tall cage creates a novel environment which induces stress in mice. Stool collection and the number of pellets excreted were determined 0, 1, 2, 4 hours after administration. […] Details data of this study is provided below in Table 1.

[3] = Metabolic stability in SD rat liver microsomes; type: in vitro ADME
Protocol: (§2) The metabolic stability of Compound D in SD rat and human liver microsomes were measured One (1) μM of Compound D was incubated with SD rat or human liver microsomes with NADPH in a water bath or tecan at 37° C. for up to 60 min. All samples were monitored using LC-MS/MS.

[4] = Metabolic stability in human liver microsomes; type: in vitro ADME
Protocol: as §2

male CD-1 mice [5] = experiment: Post-inflammatory altered GI transit time (mustard oil), fecal output; type: in vivo; settings: for 0 h (Stools), mean / 1 h (Stools), mean / 2 h (Stools), mean / 4 h (Stools), mean: 50 mg/kg PO, post-inflammatory
Protocol: This test was designed to measure the effect of test substance on gastrointestinal hypersensitivity that occurs following inflammation. Post-inflammatory altered GI transit was induced in male CD-1 mice by injecting freshly opened oil of mustard (95% pure allyl isothiocyanate, 0.5% in ethanol). The effect of stress on GI is motility is evaluated 4 weeks later, when although there is no longer inflammation, the GI tract remains in a hypersensitive state. Effect of test substance was measured after oral administration (intragastric gavage) and subjecting the animals to environmental stress by housing them in metabolism cage. During the test, the animals were allowed access to water ad lib. The wire mesh bottomed tall cage creates a novel environment, which induces stress in mice. The number of pellets excreted was determined at 1 h, 2 h and 4 h after administration. Compound D (ALB-215896) and ORP-101 were each weighed and dissolved in 2.58 ml of de-ion water, mixed by vortex, to prepare the compound D and reference compound solutions at 5 mg/mL.

[6] = 1 μM, NADPH, 37° C., up to 60 min, read-out: half-life (T1/2)
[7] = read-out: intrinsic clearance (CLint(liver))

| Compound | Papp B→A at 120 min, 2 μM [1] [×10⁻⁶ cm/s] | 0 h (Stools), mean (male CD-1 mice [2]) [Stools] | 0-1 h (Stools), mean (male CD-1 mice [2]) [Stools] | 1-2 h (Stools), mean (male CD-1 mice [2]) [Stools] | 2-4 h (Stools), mean (male CD-1 mice [2]) [Stools] | 0 h (Stools), mean (male CD-1 mice [5]) [Stools] | 1 h (Stools), mean (male CD-1 mice [5]; 1 h) [Stools] | 2 h (Stools), mean (male CD-1 mice [5]) [Stools] | 4 h (Stools), mean (male CD-1 mice [5]) [Stools] | also measured |
| --- | --- | --- | --- | --- | --- | --- | --- | --- | --- | --- |
| COc1ccc2c3c1O[C@@H]1[C@@]4(OCCOc5ccc6c7c5OC5C8(OC)CC[C@@]9(CC8[C@](C)(O)C(C)(C)C)[C@@H](C6)N(CC6CC6)CCC759)CC[C@@]5(C[C@@H]4[C@](C)(O)C(C)(C)C)[C@@H](C2)N(CC2CC2)CC[C@]315 (stereo in doubt) [Compound D, 2-((4R,4aS,6R,7R,7aR,12bS)-9-(2-(((4R,4aS,6R,7R,7aS,12bS)-9-(Methyloxy)-3-(cyclopropylmethyl)-6-(2-hydroxy-3,3-dimethylbutan-2-yl)-1,2,3,4,5,6 hexahydro-4a,7-ethano-4,12-methanobenzofuro[3,2-e]isoquinolin-7(7aH)yl)oxy)ethoxy)-3-(cyclopropylmethyl)-7-methoxy-1,2,3,4,5,6,7,7a-octahydro-4a,7ethano-4,12-methanobenzofuro[3,2-e]isoquinolin-6-yl)-3,3-dimethylbutan-2-ol] | < 0.4 | 0 | 2.4 | 1.4 | 2 | 0.00 | 1.49 | 1.59 | 2.77 | mean apparent permeability coefficient (Papp), B to A (Caco-2 cells; Caco-2, B to A direction, 120 minutes): < 0.5 ×10⁻⁶ cm/s; substrate of transporters (Caco-2 cells; Caco-2, from B to A Papp): poor and no substrate of transporters; permeability classification (Caco-2 cells; across the Caco-2 cell monolayer): low permeability; Papp A→B at 120 min, 2 μM ([1]; Caco-2, apical to basolateral, 2 μM, read-out: mean apparent permeability coefficient (Papp), A to B): < 0.48 ×10⁻⁶ cm/s; fecal output versus vehicle and reference compound, in words (male CD-1 mice [2]; oral 50mpk, 1 h, 2 h and 4 h time points): significantly reduced the fecal output; metabolic stability in words [3]: moderately metabolized; half-life at 1 μM [3, 6]: 1.46 h; CLint scaled at 1 μM [3, 7]: 28.5 mL/min/kg; metabolic stability in words [4]: stably metabolized; half-life at 1 μM [4, 6]: 1.37 h; CLint scaled at 1 μM [4, 7]: 15.2 mL/min/kg; gastrointestinal motility measured by fecal output, in words (male CD-1 mice [5]; 50mpk, 1 h, 2 h, and 4 h time points, post-inflammatory model): significantly decreased gastrointestinal motility |
| CO[C@]12CC[C@@]3(C[C@@H]1[C@](C)(O)C(C)(C)C)[C@H]1Cc4ccc(OCCOc5ccc6c7c5O[C@H]5C78CCN(CC7CC7)[C@H](C6)[C@]86CC[C@]5(OC)[C@@H]([C@](C)(O)C(C)(C)C)C6)c5c4[C@@]3(CCN1CC1CC1)[C@@H]2O5 [ORP-101, reference compound] | < 0.13 | 0 | 3.8 | 3 | 2.8 | 0 | 1.75 | 2.00 | 3.75 | Papp A→B at 120 min ([1]; Caco-2, apical to basolateral, read-out: mean apparent permeability coefficient (Papp), A to B): < 0.14 ×10⁻⁶ cm/s |
